In US20100311714A1, “1H-IMIDAZO[4,5-c]QUINOLINONE COMPOUNDS” (priority 2009, published 2010):
Like-named read-outs stand apart in the source and are kept apart here.

Key:
mTOR = molecular target: T1, mTOR (Homo sapiens, UniProt P42345); assay: Biochemical assay for m-TOR by TR-FRET
T1 construct: purchased Invitrogen Corporation (Carlsbad/Calif., USA) PV4753
Outline: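 mTOR (0.5 nM) phosphorylates GFP-4EBP1 (400 nM) with 8 μM ATP at rt in 50 mM HEPES pH 7.5, 10 mM MnCl2, 50 mM NaCl, 1 mM EGTA, 1 mM DTT; compounds 0.003–10 μM final. EDTA stop with Tb-anti-p4EBP1[pT46] antibody (0.5 nM); TR-FRET read after 15 min against no-enzyme and vehicle controls.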

[1] = test system: PKB Ser473 phosphorylation in Rat1-myr-HA-p110 alpha cells; assay: Reverse protein array, PKB Ser473 phosphorylation in Rat1-myr-HA-p110 alpha cells; assay type: cell-based; details: Rattus norvegicus, 0.5 h, 30 minutes compound incubation, read-out: p-PKB/IC50_alpha
[2] = Parallel Artificial Membrane Permeability Assay (PAMPA) at pH 6.8; assay type: physicochemical
Outline: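 PAMPA permeability measured at pH 6.8 following the Wohnsland and Faller method; value reported as log Pe.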

T1 sequence (P42345 1360-2549 limits assumed): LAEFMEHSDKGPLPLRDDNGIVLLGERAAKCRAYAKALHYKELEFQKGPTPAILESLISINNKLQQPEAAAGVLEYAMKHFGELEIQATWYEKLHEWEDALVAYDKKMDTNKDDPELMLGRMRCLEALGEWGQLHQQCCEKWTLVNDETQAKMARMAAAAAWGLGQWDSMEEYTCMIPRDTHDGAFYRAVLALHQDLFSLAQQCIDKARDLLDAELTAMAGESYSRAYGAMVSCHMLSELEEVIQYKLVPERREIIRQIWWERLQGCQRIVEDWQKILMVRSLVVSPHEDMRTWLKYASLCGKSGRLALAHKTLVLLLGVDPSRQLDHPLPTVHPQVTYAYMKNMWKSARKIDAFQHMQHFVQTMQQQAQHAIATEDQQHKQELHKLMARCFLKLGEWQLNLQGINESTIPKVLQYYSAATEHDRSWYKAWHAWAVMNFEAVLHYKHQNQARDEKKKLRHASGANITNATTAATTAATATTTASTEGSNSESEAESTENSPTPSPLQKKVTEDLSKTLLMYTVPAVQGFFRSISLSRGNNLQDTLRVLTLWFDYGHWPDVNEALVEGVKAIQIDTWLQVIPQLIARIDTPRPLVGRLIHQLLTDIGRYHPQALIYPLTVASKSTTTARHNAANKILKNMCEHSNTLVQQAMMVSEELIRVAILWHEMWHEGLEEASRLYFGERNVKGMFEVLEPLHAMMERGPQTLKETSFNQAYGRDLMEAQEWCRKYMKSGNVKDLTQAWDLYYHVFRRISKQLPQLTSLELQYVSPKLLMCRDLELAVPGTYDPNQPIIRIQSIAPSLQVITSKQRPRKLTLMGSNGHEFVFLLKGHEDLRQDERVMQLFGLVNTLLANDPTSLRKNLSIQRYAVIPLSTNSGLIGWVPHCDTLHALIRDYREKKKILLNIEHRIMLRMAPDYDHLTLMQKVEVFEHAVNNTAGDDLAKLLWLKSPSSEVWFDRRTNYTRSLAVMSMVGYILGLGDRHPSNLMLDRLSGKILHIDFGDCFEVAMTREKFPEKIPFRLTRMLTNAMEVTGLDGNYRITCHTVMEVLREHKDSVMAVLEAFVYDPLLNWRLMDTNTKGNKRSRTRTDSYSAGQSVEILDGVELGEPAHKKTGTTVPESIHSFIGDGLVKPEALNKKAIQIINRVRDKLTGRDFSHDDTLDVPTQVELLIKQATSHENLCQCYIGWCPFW

Compound	IC50 (mTOR; read-out: EPK_mTOR/IC50)	IC50 [1]	HT-Perm logPe pH6.8 [2]	IC50 (mTOR; read-out: mTOR/IC50)	HT-perm/logPe pH6.8 [2]
COCCOc1cc(-c2ccc3ncc4c(c3c2)n(-c2ccc(OC)nc2OC)c(=O)n4C)cnc1C [Example 8.9, 1-(2,6-Dimethoxy-pyridin-3-yl)-8-[5-(2-methoxy-ethoxy)-6-methyl-pyridin-3-yl]-3-methyl-1,3-dihydro-imidazo[4,5-c]quinolin-2-one]	10 nM	24.9 nM	−3.9		
CNc1ncc(-c2ccc3ncc4c(c3c2)n(-c2ccc(F)nc2C)c(=O)n4C)cc1C(F)(F)F [Example 7.13, 1-(6-Fluoro-2-methyl-pyridin-3-yl)-3-methyl-8-(6-methylamino-5-trifluoromethyl-pyridin-3-yl)-1,3-dihydro-imidazo[4,5-c]quinolin-2-one]	67 nM	< 4.57 nM	−3.7		
CCOCc1cc(-c2ccc3ncc4c(c3c2)n(-c2ccc(F)nc2C)c(=O)n4C)cnc1N [Example 7.15, 8-(6-Amino-5-ethoxymethyl-pyridin-3-yl)-1-(6-fluoro-2-methyl-pyridin-3-yl)-3-methyl-1,3-dihydro-imidazo[4,5-c]quinolin-2-one]	426 nM	20.1 nM	−4		
CNc1ncc(-c2ccc3ncc4c(c3c2)n(-c2cccnc2C)c(=O)n4C)cn1 [Example 2.2, 3-Methyl-8-(2-methylamino-pyrimidin-5-yl)-1-(2-methyl-pyridin-3-yl)-1,3-dihydro-imidazo[4,5-c]quinolin-2-one]		15.9 nM		8 nM	−4.7
CNC(=O)c1cc(-c2ccc3ncc4c(c3c2)n(-c2ccc(F)nc2C)c(=O)n4C)cnc1N [Example 7.14, 2-Amino-5-[1-(6-fluoro-2-methyl-pyridin-3-yl)-3-methyl-2-oxo-2,3-dihydro-1H-imidazo[4,5-c]quinolin-8-yl]-N-methyl-nicotinamide]	251 nM	15.2 nM	−5.9		
COc1nc(N2CCNCC2)ccc1-n1c(=O)n(C)c2cnc3ccc(-c4cnc(N(C)C)nc4)cc3c21 [Example 9.4, 8-(2-Dimethylamino-pyrimidin-5-yl)-1-(2-methoxy-6-piperazin-1-yl-pyridin-3-yl)-3-methyl-1,3-dihydro-imidazo[4,5-c]quinolin-2-one]	9 nM	18 nM	−6.1		
CCOc1ccc(-c2ccc3ncc4c(c3c2)n(-c2cccnc2OC)c(=O)n4C)cn1 [Example 1.5, 8-(6-Ethoxy-pyridin-3-yl)-1-(2-methoxy-pyridin-3-yl)-3-methyl-1,3-dihydro-imidazo[4,5-c]quinolin-2-one]		9.35 nM		107 nM	−3.6
COc1ncccc1-n1c(=O)n(C)c2cnc3ccc(-c4ccc(F)nc4)cc3c21 [Example 1.8, 8-(6-Fluoro-pyridin-3-yl)-1-(2-methoxy-pyridin-3-yl)-3-methyl-1,3-dihydro-imidazo[4,5-c]quinolin-2-one]		97.6 nM		87 nM	−3.7
CNc1ncc(-c2ccc3ncc4c(c3c2)n(-c2ccc(F)nc2C)c(=O)n4C)cc1F [Example 7.12, 8-(5-Fluoro-6-methylamino-pyridin-3-yl)-1-(6-fluoro-2-methyl-pyridin-3-yl)-3-methyl-1,3-dihydro-imidazo[4,5-c]quinolin-2-one]	66 nM	6.4 nM	−3.7		
COc1ccc(-c2ccc3ncc4c(c3c2)n(-c2cccnc2)c(=O)n4C)cc1OC [Example 5.2, 8-(3,4-Dimethoxy-phenyl)-3-methyl-1-pyridin-3-yl-1,3-dihydro-imidazo[4,5-c]quinolin-2-one]		18.1 nM		232 nM	−3.9
CNc1ncc(-c2ccc3ncc4c(c3c2)n(-c2ccc(N(C)CCOC)nc2C)c(=O)n4C)cn1 [Example 15.2, 1-{6-[(2-Methoxy-ethyl)-methyl-amino]-2-methyl-pyridin-3-yl}-3-methyl-8-(2-methylamino-pyrimidin-5-yl)-1,3-dihydro-imidazo[4,5-c]quinolin-2-one]	7 nM	5 nM	−3.9		
Cc1ccc(-n2c(=O)n(C)c3cnc4ccc(-c5cncc(NC(C)C)c5)cc4c32)c(C)n1 [Example 14.8, 1-(2,6-Dimethyl-pyridin-3-yl)-8-(5-isopropylamino-pyridin-3-yl)-3-methyl-1,3-dihydro-imidazo[4,5-c]quinolin-2-one]	28 nM	9 nM	−4.1		
Cc1ccc(-n2c(=O)n(C)c3cnc4ccc(-c5cnc(N)c(C(F)(F)F)c5)cc4c32)c(C)n1 [Example 14.5, 8-(6-Amino-5-trifluoromethyl-pyridin-3-yl)-1-(2,6-dimethyl-pyridin-3-yl)-3-methyl-1,3-dihydro-imidazo[4,5-c]quinolin-2-one]	17 nM	4.9 nM	−3.8		
CCNc1cc(-c2ccc3ncc4c(c3c2)n(-c2ccc(OCCOC)nc2C)c(=O)n4C)cnc1C [Example 13.4, 8-(5-Ethylamino-6-methyl-pyridin-3-yl)-1-[6-(2-methoxy-ethoxy)-2-methyl-pyridin-3-yl]-3-methyl-1,3-dihydro-imidazo[4,5-c]quinolin-2-one]	6 nM	< 4.57 nM	−4.1		
CCOc1ccc(-c2ccc3ncc4c(c3c2)n(-c2ccc(C)nc2C)c(=O)n4C)cn1 [Example 14.2, 1-(2,6-Dimethyl-pyridin-3-yl)-8-(6-ethoxy-pyridin-3-yl)-3-methyl-1,3-dihydro-imidazo[4,5-c]quinolin-2-one]	26 nM	20.4 nM	−3.8		

Continued, values first:

IC50 (mTOR; read-out: EPK_mTOR/IC50)	IC50 [1]	HT-Perm logPe pH6.8 [2]	IC50 (mTOR; read-out: mTOR/IC50)	HT-perm/logPe pH6.8 [2]	Compound
68 nM	14.6 nM	−4.3			Cc1nc(N2CC(F)(F)C(F)(F)C2)ccc1-n1c(=O)n(C)c2cnc3ccc(-c4cncc(C(C)(C)O)c4)cc3c21 [Example 35.1, 8-[5-(1-Hydroxy-1-methyl-ethyl)-pyridin-3-yl]-3-methyl-1-[2-methyl-6-(3,3,4,4-tetrafluoro-pyrrolidin-1-yl)-pyridin-3-yl]-1,3-dihydro-imidazo[4,5-c]quinolin-2-one]
120 nM	12.3 nM	−3.8			CCOc1ccc(-c2ccc3ncc4c(c3c2)n(-c2ccc(N(C)CCOC)nc2C)c(=O)n4C)cn1 [Example 15.3, 8-(6-Ethoxy-pyridin-3-yl)-1-{6-[(2-methoxy-ethyl)-methyl-amino]-2-methyl-pyridin-3-yl}-3-methyl-1,3-dihydro-imidazo[4,5-c]quinolin-2-one]
11 nM	7.2 nM	−3.7			CNc1ccc(-c2ccc3ncc4c(c3c2)n(-c2ccc(N(C)CCOC)nc2C)c(=O)n4C)cn1 [Example 15.4, 1-{6-[(2-Methoxy-ethyl)-methyl-amino]-2-methyl-pyridin-3-yl}-3-methyl-8-(6-methylamino-pyridin-3-yl)-1,3-dihydro-imidazo[4,5-c]quinolin-2-one]
622 nM	18.4 nM	−3.7			Cc1cc(F)ncc1-n1c(=O)n(C)c2cnc3ccc(-c4cnc5c(ccn5C)c4)cc3c21 [Example 16.5, 1-(6-Fluoro-4-methyl-pyridin-3-yl)-3-methyl-8-(1-methyl-1H-pyrrolo[2,3-b]pyridin-5-yl)-1,3-dihydro-imidazo[4,5-c]quinolin-2-one]
11 nM	5.1 nM	−5.1			COCCN(C)c1ccc(-n2c(=O)n(C)c3cnc4ccc(-c5cncc(N)c5)cc4c32)c(C)n1 [Example 15.8, 8-(5-Amino-pyridin-3-yl)-1-{6-[(2-methoxy-ethyl)-methyl-amino]-2-methyl-pyridin-3-yl}-3-methyl-1,3-dihydro-imidazo[4,5-c]quinolin-2-one]
7 nM	287 nM	−6.1			COCC(=O)Nc1ccc(-n2c(=O)n(C)c3cnc4ccc(-c5cncc(N)c5)cc4c32)c(C)n1 [Example 20.1, N-{5-[8-(5-Amino-pyridin-3-yl)-3-methyl-2-oxo-2,3-dihydro-imidazo[4,5-c]quinolin-1-yl]-6-methyl-pyridin-2-yl}-2-methoxy-acetamide]
34 nM	11.5 nM	−3.9			CNc1ccc(-c2ccc3ncc4c(c3c2)n(-c2ccc(N3CCCC3)nc2C)c(=O)n4C)cn1 [Example 25.1, 3-Methyl-8-(6-methylamino-pyridin-3-yl)-1-(2-methyl-6-pyrrolidin-1-yl-pyridin-3-yl)-1,3-dihydro-imidazo[4,5-c]quinolin-2-one]
42 nM	6.8 nM	−4.1			COc1cc(-c2ccc3ncc4c(c3c2)n(-c2ccc(N(C)C)nc2C)c(=O)n4C)cnc1CO [Example 19.4, 1-(6-Dimethylamino-2-methyl-pyridin-3-yl)-8-(6-hydroxymethyl-5-methoxy-pyridin-3-yl)-3-methyl-1,3-dihydro-imidazo[4,5-c]quinolin-2-one]
484 nM	53.4 nM	−4.5			CCOc1ccc(-c2ccc3ncc4c(c3c2)n(-c2cncc(C)c2)c(=O)n4C)cn1 [Example 17.1, 8-(6-Ethoxy-pyridin-3-yl)-3-methyl-1-(5-methyl-pyridin-3-yl)-1,3-dihydro-imidazo[4,5-c]quinolin-2-one]
704 nM	30.7 nM	−4.2			CNc1ccc(-c2ccc3ncc4c(c3c2)n(-c2cnc(F)cc2C)c(=O)n4C)cn1 [Example 16.4, 1-(6-Fluoro-4-methyl-pyridin-3-yl)-3-methyl-8-(6-methylamino-pyridin-3-yl)-1,3-dihydro-imidazo[4,5-c]quinolin-2-one]
